Patent publication US20240165196A1, “Beta-Lactamase Inhibitors” (VIB VZW, priority 2021, published 2024)
≈ marks a conversion by molar mass, not a printed value. Peptide text beside a SMILES is read from it.

Columns and labels:
Type in all cases: cell-based
[1] = system: E. coli TEM-104; as to Interpretation: key: S, susceptible; I, intermediate; R, resistant
Method: (§1) Beta-lactamase clinical samples were collected from University Hospitals Leuven and tested for ESBL production using the disk diffusion method^61. The beta-lactamase reference isolates were purchased from IHMA International Health management associates. Bacterial strains were cultivated in Mueller Hinton Broth (MHB, Difco) at 37° C. Whenever required growth media were supplemented with appropriate antibiotic to the medium or plates (kanamycin 30 μg/mL, L-arabinose 0.5 mg/mL, and IPTG 1 mM/mL). Escherichia coli BL21 (Thermo Fisher Scientific, Belgium) was used for cloning and plasmid amplification. For selection of antibiotic resistance colonies, E. coli carrying plasmids was grown in LB agar plates supplemented with the relevant antibiotic. Bacterial CFU counting was done on blood agar plates (BD Biosciences, Belgium) or MHA agar plates. Species identification and antibiograms for all clinical isolates were performed using MALDI-Tof and VITEK® 2 automated system (BioMérieux, France).

[2] = system: E. coli TEM-30; as to Interpretation: key: S, susceptible; I, intermediate; R, resistant
Method: as §1

[3] = system: E. coli TEM-148; as to Interpretation: key: S, susceptible; I, intermediate; R, resistant
Method: as §1

[4] = system: E. coli TEM-1 ?
Method: as §1

[5] = system: E. coli NDM ? a; test: antimicrobial susceptibility testing, VITEK 2 AST Cards; as to Interpretation: key: S, susceptible; I, intermediate; R, resistant
Method: as §1

[6] = system: E. coli TEM-206; test: as above; as to Interpretation: key: S, susceptible; I, intermediate; R, resistant
Method: as §1

[7] = system: E. coli NDM ? b; test: as above
Method: as §1

[8] = system: E. coli SH ? (APHA); test: as above
Method: as §1

[9] = system: E. coli strain UZ_TEM104; settings: in presence of additive at 50 μg/mL
For Interpretation in this document: key: S, susceptible; I, intermediate; R, resistant.

| Compound | Interpretation [1] | MIC [1] | Interpretation [2] | MIC [2] | Interpretation [3] | MIC [3] | Interpretation [4] | MIC [4] | Interpretation [5] | MIC [5] | Interpretation [6] | MIC [6] | Interpretation [7] | MIC [7] | Interpretation [8] | MIC [8] | MIC penicillin [9] |
| --- | --- | --- | --- | --- | --- | --- | --- | --- | --- | --- | --- | --- | --- | --- | --- | --- | --- |
| CO/N=C(\C(=O)N[C@@H]1C(=O)N2C(C(=O)OC(C)OC(C)=O)=C(COC(N)=O)CS[C@H]12)c1ccco1 (stereo partly drawn) | S | 4 µg/mL (≈ 7.84 µM) | R | ≥ 64 µg/mL | R | ≥ 64 µg/mL | R | ≥ 64 µg/mL | R | ≥ 64 µg/mL | R | ≥ 64 µg/mL | R | ≥ 64 µg/mL | R | – | – |
| NCC[C@H](O)C(=O)N[C@@H]1C[C@H](N)[C@@H](O[C@H]2O[C@H](CN)[C@@H](O)[C@H](O)[C@H]2O)[C@H](O)[C@H]1O[C@H]1O[C@H](CO)[C@@H](O)[C@H](N)[C@H]1O [Amikacin] | S | ≤ 2 µg/mL | – | – | S | ≤ 2 µg/mL | S | ≤ 2 µg/mL | S | – | S | ≤ 2 µg/mL | S | – | S | – | – |
| CC(C)(O/N=C(\C(=O)N[C@@H]1C(=O)N2C(C(=O)[O-])=C(C[n+]3ccccc3)CS[C@H]12)c1csc(N)n1)C(=O)O [C ? dime] | S | ≤ 1 µg/mL | – | ≤ 1 µg/mL | – | ≤ 1 µg/mL | R | 16 µg/mL (≈ 29.3 µM) | R | ≥ 64 µg/mL | R | 16 µg/mL (≈ 29.3 µM) | R | ≥ 64 µg/mL | R | ≥ 64 µg/mL | – |
| CO/N=C(\C(=O)N[C@@H]1C(=O)N2C(C(=O)[O-])=C(C[N+]3(C)CCCC3)CS[C@H]12)c1csc(N)n1 [C ? ime] | S | ≤ 1 µg/mL | – | ≤ 1 µg/mL | – | 2 µg/mL (≈ 4.16 µM) | R | ≥ 64 µg/mL | R | ≥ 64 µg/mL | R | ≥ 64 µg/mL | R | ≥ 64 µg/mL | R | 16 µg/mL (≈ 33.3 µM) | – |
| CO[C@@]1(NC(=O)Cc2cccs2)C(=O)N2C(C(=O)O)=C(COC(N)=O)CS[C@@H]21 [C ? tin] | – | – | – | – | – | – | S | – | – | – | S | ≤ 4 µg/mL | – | – | – | – | – |
| CO/N=C(\C(=O)N[C@@H]1C(=O)N2C(C(=O)O)=C(COC(N)=O)CS[C@H]12)c1ccco1 [C ? xime] | S | 4 µg/mL (≈ 9.43 µM) | R | ≥ 64 µg/mL | R | ≥ 64 µg/mL | R | ≥ 64 µg/mL | R | ≥ 64 µg/mL | R | ≥ 64 µg/mL | R | ≥ 64 µg/mL | R | – | – |
| CO/N=C(\C(=O)N[C@@H]1C(=O)N2C(C(=O)O)=C(COC(C)=O)CS[C@H]12)c1csc(N)n1 [Cef ? axime] | S | ≤ 1 µg/mL | R | 4 µg/mL (≈ 8.78 µM) | R | 16 µg/mL (≈ 35.1 µM) | R | ≥ 64 µg/mL | R | ≥ 64 µg/mL | R | ≥ 64 µg/mL | R | ≥ 64 µg/mL | R | ≥ 64 µg/mL | – |
| C[C@H]1COc2c(N3CCN(C)CC3)c(F)cc3c(=O)c(C(=O)O)cn1c23 [Levofloxacin] | – | – | – | – | – | – | – | – | – | – | R | – | – | – | S | – | – |
| C[C@@H](O)[C@H]1C(=O)N2C(C(=O)O)=C(S[C@@H]3CN[C@H](C(=O)N(C)C)C3)[C@H](C)[C@H]12 [Meropen ? m] | S | – | S | ≤ 0.25 µg/mL | S | ≤ 0.25 µg/mL | S | ≤ 0.25 µg/mL | R | ≥ 16 µg/mL | S | ≤ 0.25 µg/mL | I | 8 µg/mL (≈ 20.9 µM) | S | ≤ 0.25 µg/mL | – |
| O=C1CN(/N=C/c2ccc([N+](=O)[O-])o2)C(=O)N1 [Nitrofuran ?] | S | – | S | 32 µg/mL (≈ 134 µM) | S | 32 µg/mL (≈ 134 µM) | S | ≤ 16 µg/mL | R | 64 µg/mL (≈ 269 µM) | S | – | R | 64 µg/mL (≈ 269 µM) | S | ≤ 16 µg/mL | – |
| CO[C@@]1(NC(=O)C(C(=O)O)c2ccsc2)C(=O)N2[C@@H](C(=O)O)C(C)(C)S[C@@H]21 (stereo partly drawn) [T ? cillin] | – | – | – | – | – | – | – | – | – | – | S | – | – | – | – | – | – |
| CC(=O)N[C@@H](CCCNC(=N)N)C(=O)N[C@@H](Cc1ccccc1)C(=O)N[C@@H](Cc1ccccc1)C(=O)N[C@@H](C)C(=O)N[C@@H](C)C(=O)N[C@@H](Cc1ccccc1)C(=O)N[C@@H](CS)C(=O)N[C@@H](CC(C)C)C(=O)N[C@@H](CCCNC(=N)N)C(=O)N[C@@H](CCCNC(=N)N)C(=O)N[C@@H](CCCNC(=N)N)C(=O)N1CCC[C@H]1C(=O)N[C@@H](Cc1ccccc1)C(=O)N[C@@H](Cc1ccccc1)C(=O)N[C@@H](C)C(=O)N[C@@H](C)C(=O)N[C@@H](Cc1ccccc1)C(=O)N[C@@H](CS)C(=O)N[C@@H](CC(C)C)C(=O)N[C@@H](CCCNC(=N)N)C(=O)N[C@@H](CCCNC(=N)N)C(N)=O [TEM1.0] (Ac-RFFAAFCLRRRPFFAAFCLRR-NH2) | – | – | – | – | – | – | – | – | – | – | – | – | – | – | – | – | 1600 µg/mL |
| CN(C)c1cc(NC(=O)CNC(C)(C)C)c(O)c2c1C[C@H]1C[C@H]3[C@H](N(C)C)C(O)=C(C(N)=O)C(=O)[C@@]3(O)C(O)=C1C2=O [Tig ? cycline] | – | – | – | – | – | – | – | – | – | – | – | – | – | – | S | – | – |
| NC[C@H]1O[C@H](O[C@H]2[C@H](O)[C@@H](O[C@H]3O[C@H](CO)[C@@H](O)[C@H](N)[C@H]3O)[C@H](N)C[C@@H]2N)[C@H](N)C[C@@H]1O [Tobramycin] | S | ≤ 1 µg/mL | – | – | S | ≤ 1 µg/mL | S | ≤ 1 µg/mL | – | – | S | ≤ 1 µg/mL | S | – | – | – | – |
| Colistin | S | ≤ 0.5 µg/mL | S | ≤ 0.5 µg/mL | S | ≤ 0.5 µg/mL | S | ≤ 0.5 µg/mL | S | ≤ 0.5 µg/mL | S | ≤ 0.5 µg/mL | S | ≤ 0.5 µg/mL | S | ≤ 0.5 µg/mL | – |
| Gentamicin | S | ≤ 1 µg/mL | R | ≥ 16 µg/mL | S | ≤ 1 µg/mL | S | ≤ 1 µg/mL | R | ≥ 16 µg/mL | S | ≤ 1 µg/mL | S | ≤ 1 µg/mL | R | – | – |
